Laboratory results taken from patent US6242442A (Alcon Laboratories, Inc., priority 2000, dated 2001).
Read-outs that look alike come from different tables or passages of the source.

Columns and labels:
[1] = Distribution coefficient (octanol/water determined at pH 7.4); type: physicochemical
[2] = system: ocular blood flow; conditions: cited from earlier work
[3] = system: blood flow to the iris, ciliary processes, optic nerve, or retina; conditions: topical, rabbits; Sugrue et al. 1996; cited from earlier work
[4] = system: ocular blood flow; conditions: cited from earlier work; remark: listed apart in the source
[5] = system: α2; conditions: cited from earlier work
[6] = system: IOP; conditions: rabbits, monkeys and man; cited from earlier work
[7] = system: scleral vessels; vessels in the back of the eye; conditions: topical ocular administration; cited from earlier work
[8] = topical, some patients; cited from earlier work
[9] = octanol/water, pH 7.4; in words; cited from earlier work
[10] = system: ocular and cerebral blood flow; conditions: oral and i.v. administration, relatively high dosages; cited from earlier work
[11] = in words; cited from earlier work
[12] = system: optic nerve head (ONH); test: Optic nerve head blood flow by laser Doppler flowmetry in cats; type: in vivo, cat
[13] = system: ocular tissues; test: Ocular blood flow by colored microsphere technique in anesthetized rabbits, intravenous; type: in vivo, New Zealand albino rabbits; conditions: for increase in total ocular blood flow, hypofused eyes: unilateral carotid occlusion
Text: (§1) In this experiment it was also possible to compare blood flows of the normal eye to the contralateral eye that was mildly hypofused due to unilateral carotid occlusion.

[14] = system: optic nerve head; test: Optic nerve head blood flow by LDF in anesthetized rabbits, intravenous; type: in vivo, New Zealand albino rabbits; conditions: intravenous 0.5, 2.5, and 5 mg/kg
Text: as §1

[15] = system: optic nerve head (ONH); test: Optic nerve head blood flow by LDF, one-week multidose topical crossover study in rabbits; type: in vivo, Dutch-Belted rabbits; conditions: 2% suspension topical, one drop twice daily, 90 minutes after last dose, mean±SEM, p<0.05
Procedure: (§2) Treatment measurements were made 90 minutes after the last dose on day eight. Optic nerve head blood flow and measured systemic variables were not changed by vehicle treatment. […] It is established that the vasculature of the ONH responds to increases in arterial O2 or CO2 tension by a reduction or an enhancement of ONH blood flow respectively.

[16] = system: intraocular pressure (IOP); test: Intraocular pressure, one-week multidose topical crossover study in rabbits; type: in vivo, Dutch-Belted rabbits; conditions: 2% suspension topical, one drop twice daily, 90 minutes after last dose, p<0.05 versus vehicle, p<0.001 versus baseline
Procedure: as §2

[17] = Acid-base balance and arterial gases, one-week multidose topical crossover study in rabbits; type: in vivo, Dutch-Belted rabbits; conditions: 2% suspension topical, one drop twice daily
Procedure: as §2

[18] = system: retina; test: Tissue distribution after single topical ocular dose of 14C-brinzolamide, NZW rabbits; type: in vivo, New Zealand Albino (NZW) rabbits
[19] = system: retina; test: Tissue distribution after single topical ocular dose of 14C-brinzolamide, Dutch belted rabbits; type: in vivo
[20] = system: intraocular pressure; conditions: ocular hypertension and glaucoma; cited from earlier work
[21] = read-out: distribution coefficient (converted)
[22] = retina, single topical ocular dose of 1% 14C-brinzolamide

CCN[C@H]1C[C@H](C)S(=O)(=O)c2sc(S(N)(=O)=O)cc21 [dorzolamide]
logD [1, 21]: 0.236
artereovenous passage time ([2]; healthy subjects, WO 96/37203): accelerated artereovenous passage time
optic nerve head velocity ([2]; healthy subjects, WO 96/37203): increase in optic nerve head velocity
retinal vein blood flow ([2]; normal volunteers, Gruenwald et al. 1997): no effect on retinal vein blood flow
optic nerve head blood flow ([2]; topical, healthy subjects, Pillunat et al. 1997): did not alter optic nerve head blood flow
blood flow to the iris, ciliary processes, optic nerve, or retina [3]: does not decrease blood flow
blood velocity in the retina and superficial optic nerve head ([4]; Harris et al. 1996): accelerated blood velocity in the retina and superficial optic nerve head
choroidal pressure flow relationships ([4]; Shipman et al. 1997): did not alter the choroidal pressure flow relationships
peripapillary blood flow ([4]; topical, Koller et al. 1997): did not change peripapillary blood flow
ocular blood flow ([4]; topical, Sponsel 1996, 1997): positive effect on ocular blood flow

Brc1c(NC2=NCCN2)ccc2nccnc12 [brimonidine, (5-bromo-6-2-imidzolidisnylideneamino) quinozoline L-tartrate]
α2 agonist activity and selectivity [5]: potent and relatively selective α2 agonist
lowering of IOP [6]: effectively lower IOP in rabbits, monkeys and man
vasoconstriction in scleral vessels [7]: causes vasoconstriction in scieral vessels
vasoconstriction in vessels in the back of the eye [7]: does not appear to be a vasoconstrictor in vessels in the back of the eye
side effects [8]: sedation and ocular hyperemia in an allergic like reaction in some patients

CC(=O)/N=c1/sc(S(N)(=O)=O)nn1C [methazolamide]
logD [1]: -0.194
distribution coefficient [9]: low distribution coefficients
ocular and cerebral blood flow [10]: increase both ocular and cerebral blood flow
half-life in whole blood [11]: relatively short half-lives in whole blood

CC(=O)Nc1nnc(S(N)(=O)=O)s1 [acetazolamide]
ocular and cerebral blood flow [10]: increase both ocular and cerebral blood flow
half-life in whole blood [11]: relatively short half-lives in whole blood

CCN[C@H]1CN(CCCOC)S(=O)(=O)c2sc(S(N)(=O)=O)cc21 [brinzolamide, R-(+)-4ethylamino-3,4-dihydro-2-(3-methoxy)propyl-2H thieno[3,2,e]1,2thiazene-6sulfonamide-1,1dioxide]
logD [1, 21]: 0.817
increase in ONH blood flow over control group ([12]; 1% topical, one drop twice a day, one week, spontaneously breathing cats, average of two measurements): 21.8%
increase in ONH blood flow ([12]; 60 minutes following single topical dose, anesthetized ventilated cats): 16.5%±8%
increase in ONH blood flow ([12]; intravenous, p≤0.05): 46±17%
regional blood flows to the hypofused eye ([13]; highest intravenous dose): returned regional blood flows to the hypofused eye to baseline levels found in the normal eye
tissues with greatest percentage blood flow increase, hypofused eye ([13]; intravenous): greatest to iridial, ciliary, and choroidal tissues, respectively
increase in total ocular blood flow, normal eyes ([13]; intravenous 0.5 mg/kg): 29%
increase in total ocular blood flow, hypofused eyes ([13]; intravenous 0.5 mg/kg): 21%
increase in total ocular blood flow, normal eyes ([13]; intravenous 2.5 mg/kg): 68%
increase in total ocular blood flow, hypofused eyes ([13]; intravenous 2.5 mg/kg): 64%
increase in total ocular blood flow, normal eyes ([13]; intravenous 5 mg/kg): 90%
increase in total ocular blood flow, hypofused eyes ([13]; intravenous 5 mg/kg): 90%
total ocular blood flow ([13]; intravenous 0.5, 2.5, and 5 mg/kg): significant dose-related increase
optic nerve head blood flow [14]: increased above baseline
increase in ONH blood flow [15]: 11.2±1.6%
decrease of IOP [16]: 16.8±2.2%
disturbance of acid-base balance [17]: Minimal disturbance of acid-base balance
Cmax [18, 22]: 0.330 ?g equivalents/g
Tmax in the retina ([18]; single topical ocular dose of 1% 14C-brinzolamide): 20 days
redistribution into the retina ([18]; topical ocular): slowly redistribute into the retina
Cmax [19, 22]: 0.338 ?g equivalents/g
redistribution into the retina ([19]; topical ocular): slowly redistribute into the retina
lowering of elevated intraocular pressure [20]: effective in lowering the elevated intraocular pressure
